This note sets out measurements from patent publication US10731159B2, “Cationic lipid” (DAIICHI SANKYO COMPANY, LIMITED, priority 2013, dated 2020).

What all share (type): cell-based
For assay [1], the system named is human β-catenin gene. Briefly: Test Example 1: β-catenin gene expression inhibition in SW480 cells, 3 days, real-time PCR. To be noted: nucleic acid lipid particle of Example 31 containing the named lipid, double-stranded polynucleotide concentration, read-out: β-catenin gene expression inhibitory activity IC50. How it is done:
(§1) As described below, the strength of human β-catenin gene expression inhibitory activity was compared among nucleic acid lipid particles each prepared using a novel lipid.
(§2) The concentration of a human colorectal cancer SW480 cell line (derived from human colorectal adenocarcinoma) was adjusted to 50,000 cells/mL in an RPMI1640 medium (manufactured by Invitrogen Corp.) containing 10% fetal bovine serum (culture medium). Then, the resulting culture solution was inoculated at 100 μL/well to a 96-well flat-bottomed plate (manufactured by Corning Inc./Falcon) and cultured at 37° C. for 1 day under 5.0% CO2. The nucleic acid lipid particle dispersion prepared in Example 31 was diluted with a culture medium to prepare dilution series having final double-stranded polynucleotide concentrations of 30, 3.0, 0.3, and 0.03 nM in the medium. Then, each dilution was added to the cells after removal of the culture supernatant, and the culture was further continued for 3 days. This operation was performed at N=3 for each concentration.
(§3) A lysate and cDNA for real-time PCR measurement were prepared from the transfected cells using TaqMan® Fast-Cells-to-Ct kit (Life Technologies, Inc./Ambion) according to the instruction manual. In the lysate preparation, Lysis Solution supplemented with DNase I was used. The probes for real-time PCR used were TaqMan® Gene Expression Assays (CTNNB1, FAM probe) (Hs00355045_m1, manufactured by Applied Biosystems, Inc.) for the human β-catenin gene and a human GAPDH gene probe as an internal standard (VIC probe, Hs99999905_m1, manufactured by Applied Biosystems, Inc.). 5 μL of TaqMan® Fast Advanced Master Mix, 2 μL of RNase-Free Water, 0.5 μL of each gene probe, and 2 μL of the prepared cDNA solution were added per well of a 384-well PCR plate (manufactured by Applied Biosystems, Inc.) to bring the total amount to 10 μL, which was then loaded in ViiA™ 7 Real-time PCR system (manufactured by Applied Biosystems, Inc.) and subjected to PCR under conditions given below. The real-time PCR was carried out at N=4 for the cDNA prepared from the lysate.
(§4) PCR initial activation: 95° C. for 20 seconds
(§5) PCR: 95° C. for 1 second • 62° C. for 20 seconds
(§6) This PCR cycle was repetitively performed 40 times.
(§7) The quantitative analysis was conducted by the ΔΔCt method.
A general note: In qPCR the cycle at which signal appears reflects the starting amount.

For assay [2], the system named is human β-catenin gene. Briefly: Test Example 2: β-catenin gene expression inhibition in HepG2 cells, 3 days, real-time PCR. To be noted: nucleic acid lipid particle of Example 31 containing the named lipid, read-out: β-catenin gene expression inhibitory activity IC50. As for the experimental part: as §1
The concentration of a human liver cancer HepG2 cell line (derived from human liver cancer) was adjusted to 50000 cells/mL in a DMEM medium (manufactured by Invitrogen Corp.) containing 10% fetal bovine serum (culture medium). Then, the resulting culture solution was inoculated at 100 μL/well to a 96-well flat-bottomed plate (manufactured by Corning Inc./Falcon) and cultured at 37° C. for 1 day under 5.0% CO2. The nucleic acid lipid particle-containing dispersion prepared in Example 31 was diluted with a culture medium to prepare dilution series having final double-stranded polynucleotide concentrations of 30, 3, 0.3, and 0.03 nM in the medium. Then, each dilution was added to the cells after removal of the culture supernatant, and the culture was further continued for 3 days. This operation was performed at N=3 for each concentration.
as §3, §4, §5, §6, §7

Assay [3] deals with human β-catenin gene. The assay can be described thus: Test Example 8: β-catenin gene expression inhibition in SW480 cells, procedures of Test Example 3, 50-0.05 nM. To be noted: procedures of Test Example 3, 50, 5, 0.5, 0.05 nM, particles of Example 55, read-out: β-catenin gene expression inhibitory activity IC50. As for the experimental part: as §2, with “to 50000” for “to 50,000”, “in a” for “in an”, “lipid particle-containing” for “lipid particle”, “30, 3,” for “30, 3.0,”, “for 4 hours.” for “for 3 days.”
as §3, §7
By the same procedures as in Test Example 3, SW480 cells were treated with 50 nM, 5 nM, 0.5 nM, and 0.05 nM each of nucleic acid lipid particles each prepared using a novel lipid, and the strength of human β-catenin gene expression inhibitory activity was compared among these particles.

The subject of assay [4] is human β-catenin gene. The assay can be described thus: Test Example 3: β-catenin gene expression inhibition in SW480 cells, 4 hours, real-time PCR. As for the experimental part:
as §1
as §2, with “to 50000” for “to 50,000”, “in a” for “in an”, “lipid particle-containing” for “lipid particle”, “30, 3,” for “30, 3.0,”, “for 4 hours.” for “for 3 days.”
A lysate and cDNA for real-time PCR measurement were prepared from the transfected cells using TaqMan® Fast-Cells-to-Ct kit (Life Technologies, Inc./Ambion) according to the instruction manual. In the lysate preparation, Lysis Solution supplemented with DNase I was used. […]
as §7

For assay [5], the system named is human hepatocellular carcinoma HuH-7 cell line. The assay can be described thus: Test Example 11: mCherry mRNA expression in HuH-7 cells, fluorescent observation. Particulars: mCherry mRNA 2, 0.4, 0.08 μg/mL, one day after transfection, particle of Example 58. How it is done: As described below, the expression of mCherry was measured using a nucleic acid lipid particle prepared using a novel lipid.
The concentration of a human hepatocellular carcinoma HuH-7 cell line was adjusted to 10,000 cells/mL in a DMEM medium (manufactured by Invitrogen Corp.) containing 10% fetal bovine serum (culture medium). Then, the resulting culture solution was inoculated at 100 μL/well to a 96-well flat-bottomed plate (manufactured by Corning Inc./Falcon) and cultured at 37° C. for 1 day under 5.0% CO2. The nucleic acid lipid particle dispersion prepared in Example 58 was diluted with a culture medium to prepare dilution series having final mRNA concentrations of 2, 0.4, and 0.08 μg/mL in the medium. Then, each dilution was added to the cells after removal of the culture supernatant, and the culture was further continued. This operation was performed at N=3 for each concentration. A control group was cultured in only a culture medium.
One day after the transfection, the culture medium was removed, and 100 μL of 10 N Mildform (Wako Pure Chemical Industries Ltd.) was added to each well and left at room temperature for 10 minutes in the dark. […] After replacement with DPBS, the fluorescence was observed using IN Cell Analyzer 6000 (GE Healthcare Japan Corp.). […]

Broadly, the IC50 is the concentration at which inhibition is half-maximal. Take `CCCCC/C=C\C/C=C\CCCCCCCCC(CCCCCCCC/C=C\C/C=C\CCCCC)OC(=O)OCCN(C)C` [Reference Example 2, 2-(Dimethylamino)ethyl(6Z,9Z,28Z,31Z)-heptatriaconta-6,9,28,31-tetraen-19-yl Carbonate, reference compound]: the IC50 in assay [1] is over 30 nM; in assay [2] it was over 30 nM; in assay [3], over 50 nM.

Turning to `CCCCC/C=C\C/C=C\CCCCCCCC(CCCCCCCCCC)OC(=O)OCCCN(C)C` (stereo not drawn) [Example 8, 3-Dimethylaminopropyl(9Z,12Z)-octacosa-19,22-dien-11-yl Carbonate], in assay [4] (compared with particle containing lipid compound 1), the “inhibitory activity against β-catenin gene expression (in words)” value is “strong inhibitory activity”. Also, the IC50 in assay [4] (nucleic acid lipid particle of Example 31 containing the named lipid, read-out: β-catenin gene expression inhibitory activity IC50) is 8.3 nM. Also, the “expression of mCherry (fluorescent observation, FIG. 6, in words)” value in assay [5] is on record as “promote the expression of mCherry”.
